Results reported in patent EP0954520B1, “ISOFLAVONE DERIVATIVES, PROCESSES FOR THE PREPARATION THEREOF AND PHARMACEUTICAL COMPOSITIONS CONTAINING THEM” (CHIESI FARMACEUTICI S.p.A., priority 1997, dated 1998).

What was measured:
immature rats = test: Uterotrophic and antiuterotrophic actions in immature rat assay (uterine weight); assay type: in vivo; settings: for suppression of estradiol's activity (uterotrophic action): with 17b-estradiol
Description: The uterotrophic and antiuterotrophic actions of CHF 3316.01 were studied to determine the estrogenic and antiestrogenic activity of CHF 3316.01 in immature rat assay. All experiments were conducted using subcutaneous injection of the test compound as a solution in 20% Solutol HS 15. Each experiment was accompained by a vehicle control group and a positive control group (17b-estradiol 2 mg/kg by subcutaneous injection). The test protocol was based on the immature rat assay protocol described by […]. and […] Endocr (1978), 99, 445-464. Animals were dosed on 3 successive days with the appropriate material. Animals were killed by an overdose of CO2 24 hr after the final dose. The body of the uterus was cut just above its junction with the cervix and at the junction of the uterine horns with the ovaries. The uterus was then weighed. Generally, 6 animals per exposure group were employed. The daily dose levels used for CHF 3316.01 were 10 and 20 mg/kg.

estrogen receptors = target: T1, estrogen receptors (Bos taurus, UniProt P49884); test: biochemical
T1 sequence (P49884 1-596): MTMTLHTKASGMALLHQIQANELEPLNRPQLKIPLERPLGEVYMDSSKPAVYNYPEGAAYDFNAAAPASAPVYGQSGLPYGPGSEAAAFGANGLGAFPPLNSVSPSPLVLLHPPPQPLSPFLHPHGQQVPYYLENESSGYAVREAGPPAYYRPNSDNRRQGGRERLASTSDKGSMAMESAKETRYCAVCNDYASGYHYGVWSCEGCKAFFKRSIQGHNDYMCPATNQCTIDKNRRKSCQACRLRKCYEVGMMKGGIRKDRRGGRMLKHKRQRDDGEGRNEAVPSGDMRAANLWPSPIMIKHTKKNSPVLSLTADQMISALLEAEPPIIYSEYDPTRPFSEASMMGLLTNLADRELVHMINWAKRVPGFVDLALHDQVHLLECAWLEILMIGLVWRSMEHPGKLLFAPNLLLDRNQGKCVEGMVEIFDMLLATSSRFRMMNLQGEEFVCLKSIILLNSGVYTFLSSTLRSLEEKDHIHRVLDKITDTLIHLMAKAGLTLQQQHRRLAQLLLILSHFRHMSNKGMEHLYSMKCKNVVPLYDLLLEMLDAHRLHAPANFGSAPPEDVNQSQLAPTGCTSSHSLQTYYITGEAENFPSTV
Description: To determine the estrogen receptor binding affinity of CHF 3316.01 calf uterus, prepared as previously described in McGuire W. L. et al. Eds. Estrogen receptors in human breast cancer, Raven Press N. Y., (1975), was used as source of estrogen receptors.
Displacement curves were generated using final concentrations of 1.5 nM 17b-[3H]estradiol as radioligand and (1)/(2) [formula] -log unit increments of CHF 3316.01, ranging from 0.1 to 10,000 nM.
Incubation time was 24 hr at 4°C, after which dextran-treated charcoal was added. The suspension was then centrifuged, and radioactivity in the supernatant fluid was determined by scintillation counting. Percent binding was determined in duplicate at each concentration of displacing ligand.
IC50 value for 50 % inhibition of 17b-[3H]estradiol binding and Ki value were determined by non linear regression analysis of log concentration-displacement curves.

[1] = test system: fetal rat long bones (radius and ulna); test: Bone resorption in fetal rat long bone culture (bPTH 1-34 induced 45Ca release); settings: for inhibition of 45Ca release induced by bPTH: bPTH 1-34 5 nM, 5 days culture
[2] = test system: fetal rat long bones (radius and ulna); test: as above; assay type: cell-based; settings: 5 nM, day 5; n=7
Description: Pregnant Sprague-Dawley rats were injected subcutaneously with 0.2 mCi 45Ca (CaCl2, >10 Ci/g) on the 18th day of gestation (day of vaginal plug discovery equals day 0 of pregnancy).
To remove freely exchangeable 45Ca, bones were pre-incubated for 24 hours in 48-well polystyrene culture dishes (Costar, Cambridge, MA) containing 500 µl of a culture medium (BGJ-B medium) in an air humidified incubator at 37°C in 5% C02.
The medium was changed after 2 days.

**Q.** Which “increase of uterine weight above vehicle control group” value (immature rats; 2 mg/kg subcutaneous, three successive daily injections, immature rats) does the source give for `C[C@]12CC[C@@H]3c4ccc(O)cc4CC[C@H]3[C@@H]1CC[C@@H]2O` [17b-estradiol, reference compound] here?
**A.** 93%

**Q.** What does the source list for `Cl.O=C(c1ccc(OCCN2CCCCC2)cc1)c1oc2cc(O)ccc2c(=O)c1-c1ccc(O)cc1` [CHF 3316.01, 4',7-dihydroxy-2-(4-(2-(N-piperidinyl)ethyloxy)benzoyl)isoflavone hydrochloride]?
**A.** Ki (estrogen receptors): 3.9 ± 0.3 nM; suppression of estradiol's activity (uterotrophic action) (immature rats; 10 mg/Kg per day subcutaneous, 3 days): 63%; suppression of estradiol's activity (uterotrophic action) (immature rats; 20 mg/Kg per day subcutaneous, 3 days): 78%; uterotrophic activity (immature rats; 10 and 20 mg/kg per day subcutaneous, 3 days): devoid of uterotrophic activity; inhibition of 45Ca release induced by bPTH ([1]; 3 mM (so in the source)): 24.81±2.14%; inhibition of 45Ca release induced by bPTH ([1]; 10 mM (so in the source)): 37.86%; inhibition of 45Ca release induced by bPTH ([1]; 30 mM (so in the source)): full inhibition; IC50 ([1]; Rattus norvegicus, read-out: apparent IC50 value): 10000 nM; potency relative to M3 (more potent) ([1]; versus metabolite 3 of ipriflavone M3): ~2 fold

**Q.** For `O=P(O)(O)C(Cl)(Cl)P(=O)(O)O` [Disodium clodronate, dichloromethylene bisphosphonate, reference compound], which inhibition at 5 µM ([1]; Rattus norvegicus, 120 h, read-out: inhibition of resorption) is on record?
**A.** 90 ± 5%

**Q.** How did the Ki (estrogen receptors) turn out when `O=c1c(-c2ccc(O)cc2)coc2cc(O)ccc12` [Example M2, 4',7-dihydroxyisoflavone, reference compound] was run?
**A.** 127 nM

**Q.** With “bPTH 1-34: bovine parathyroid hormone fragment 1-34, used to induce resorption (AVSEIQFMHNLGKHLSSMERVEWLRKKLQDVHNF; Parathyroid hormone; UniProt P01268 32-65, looked up, fragment)” as the compound, how does the “45Ca release, treated over control (T/C) ratio” value [2] read?
**A.** 4.27±0.33
